Reference: patent US20200297790A1, “HERBAL COMPOSITION FOR PREVENTING OR TREATING BENIGN PROSTATIC HYPERPLASIA DISEASE” (priority 2017, published 2020)

What was measured:
[1] = Body weight change in testosterone-induced benign prostatic hyperplasia rat model; format: in vivo; settings: weighed weekly, five times; extracts 300 mg/kg or finasteride 10 mg/kg orally, 30 days; FIG. 4
Excerpt: (§1) After being acclimated for one week or longer, male SD rats 9 weeks old (weighing 350 g or less) were divided on the basis of weight into (1) a normal group, (2) a benign prostatic hyperplasia-induced and distilled water-administered group (negative control), (3) benign prostatic hyperplasia-induced and composite herbal extract-administered group ([…]), (4) benign prostatic hyperplasia-induced and single Semen Cuscutae herbal extract-administered group (Comparative Example 1-1), (5) benign prostatic hyperplasia-induced and single Semen nelumbinis herbal extract-administered group (Comparative Example 1-2), (6) benign prostatic hyperplasia-induced and single Taraxaci Herba herbal extract-administered group (Comparative Example 1-3), and (7) benign prostatic hyperplasia-induced and finasteride-administered group (positive control). In order to induce benign prostatic hyperplasia, testosterone (dissolved in cotton seed oil) was subcutaneously injected at a dose of 3 mg/kg once/three days for a total of 10 times. For the control, the same amount of cotton seed oil was subcutaneously injected. The composite herbal extract of Preparation Example 1-6 and the single herbal extracts of Comparative Example 1 were each orally administered at a dose of 300 mg/kg once a day for 30 days. […]

[2] = test system: testosterone-induced benign prostatic hyperplasia rat model; experiment: Size of acinus in excised prostate tissue (H&E staining) of testosterone-induced benign prostatic hyperplasia rat model; format: in vivo; settings: extracts 300 mg/kg or finasteride 10 mg/kg orally, 30 days
Experimental: For the control, the same amount of cotton seed oil was subcutaneously injected. […] For the negative control, oral administration of distilled water alone was carried out. From the starting day of the test, the rats were weighed five times in total at regular intervals of one week. On the next day after the final administration and treatment, the rats were sacrificed with carbon dioxide gas. The prostate glands were excised and weighed. % Inhibition of prostate enlargement was expressed according to the following mathematical formula on the basis of the weight measurements. […] Slides of the stained tissues were observed and photographed with an optical microscope. From the images, sizes of the acini in the prostate glands were measured. The reduction in the size of acinus of each experimental group is expressed as a percentage relative to the size of acinus of the normal group.

[3] = test system: testosterone-induced benign prostatic hyperplasia rat model; experiment: Inhibition of prostate enlargement (prostate weight) in testosterone-induced benign prostatic hyperplasia rat model; format: in vivo; settings: SD rats, testosterone 3 mg/kg s.c., extracts 300 mg/kg or finasteride 10 mg/kg orally once a day for 30 days
Excerpt: as §1

[4] = test system: LNCaP cells; experiment: Inhibition of testosterone-induced proliferation of prostate epithelial cell line (MTT assay); format: cell-based, human; settings: 2 μM testosterone alone, 72 hours
Experimental: LNCaP cells, which are the prostate epithelial cells derived from human prostate cancer, were seeded at a density of 1×10^5 cells/well in 24-well plates containing an RPMI medium (Gibco U.S.A) and stabilized overnight. Then, the cells were cultured for 24 hours in a serum-free medium. After removal of the medium, the cells were incubated for 72 hours with 2 μM of testosterone (Tes) alone or in combination with 50, 100, or 200 μg/ml of the composite herbal extract of Preparation Example 1-6 or 4. Thereafter, growth of the cells was evaluated by MTT assay. Cell proliferation data were expressed as percentages of the cell counts relative to that of the Tes-treated group.
LNCaP cells, which are the prostate epithelial cells derived from human prostate cancer, were seeded at a density of 1×10^5 cells/well in 24-well plates containing an RPMI medium (Gibco, U.S.A) and stabilized overnight. […] Thereafter, growth of the cells was evaluated by MTT assay. Cell proliferation data were expressed as percentages of the cell counts relative to that of the Tes-treated group.
LNCaP cells, which are the prostate epithelial cells derived from human prostate cancer, were seeded at a density of 1×10^5 cells/well in 24-well plates containing an RPMI medium (Gibco, U.S.A) and stabilized overnight. […] Thereafter, growth of the cells was evaluated by MTT assay. […]

SMILES	body weight difference among testosterone-treated groups [1]	Reductive effect on size of acinus (%) [2] [%]	Size of acinus (%) ([2]; percentage relative to normal group)	Prostate weight/body weight [3] [g/kg]	% Inhibition of prostate enlargement ([3]; vs negative control) [%]	growth of prostate epithelial cells when treated with testosterone [4]
CC(C)(C)NC(=O)[C@H]1CC[C@H]2[C@@H]3CC[C@H]4NC(=O)C=C[C@]4(C)[C@H]3CC[C@]12C [Finasteride]	significant differences in body weight were not observed	42	279 ± 10	1.31 ± 0.10	43	–
C[C@]12CC[C@H]3[C@@H](CCC4=CC(=O)CC[C@@]43C)[C@@H]1CC[C@@H]2O [testosterone]	–	–	–	–	–	about 62.5%
